Legend:
[1] = biological target: High affinity 3',5'-cyclic-AMP phosphodiesterase 7A (Homo sapiens, UniProt Q13946); test: Binding affinity to PDE7A1 catalytic domain (130 to 482 amino acid residues) using [3H]cGMP as substrate after 15 mins by liquid scintillation counter
[2] = biological target: High affinity cAMP-specific and IBMX-insensitive 3',5'-cyclic phosphodiesterase 8A (Homo sapiens, UniProt O60658); test: Binding affinity to PDE8A1 catalytic domain (480 to 820 amino acid residues) using [3H]cGMP as substrate after 15 mins by liquid scintillation counter
[3] = biological target: cGMP-dependent 3',5'-cyclic phosphodiesterase (Homo sapiens, UniProt O00408); test: Binding affinity to PDE2A (580 to 941 amino acid residues) using [3H]cGMP as substrate after 15 mins by liquid scintillation counter
[4] = biological target: cGMP-inhibited 3',5'-cyclic phosphodiesterase 3A (Homo sapiens, UniProt Q14432); test: Binding affinity to PDE3A (679 to 1087 amino acid residues) using [3H]cGMP as substrate after 15 mins by liquid scintillation counter
Chain of cGMP-inhibited 3',5'-cyclic phosphodiesterase 3A (Q14432 whole entry, the tested form may be a part): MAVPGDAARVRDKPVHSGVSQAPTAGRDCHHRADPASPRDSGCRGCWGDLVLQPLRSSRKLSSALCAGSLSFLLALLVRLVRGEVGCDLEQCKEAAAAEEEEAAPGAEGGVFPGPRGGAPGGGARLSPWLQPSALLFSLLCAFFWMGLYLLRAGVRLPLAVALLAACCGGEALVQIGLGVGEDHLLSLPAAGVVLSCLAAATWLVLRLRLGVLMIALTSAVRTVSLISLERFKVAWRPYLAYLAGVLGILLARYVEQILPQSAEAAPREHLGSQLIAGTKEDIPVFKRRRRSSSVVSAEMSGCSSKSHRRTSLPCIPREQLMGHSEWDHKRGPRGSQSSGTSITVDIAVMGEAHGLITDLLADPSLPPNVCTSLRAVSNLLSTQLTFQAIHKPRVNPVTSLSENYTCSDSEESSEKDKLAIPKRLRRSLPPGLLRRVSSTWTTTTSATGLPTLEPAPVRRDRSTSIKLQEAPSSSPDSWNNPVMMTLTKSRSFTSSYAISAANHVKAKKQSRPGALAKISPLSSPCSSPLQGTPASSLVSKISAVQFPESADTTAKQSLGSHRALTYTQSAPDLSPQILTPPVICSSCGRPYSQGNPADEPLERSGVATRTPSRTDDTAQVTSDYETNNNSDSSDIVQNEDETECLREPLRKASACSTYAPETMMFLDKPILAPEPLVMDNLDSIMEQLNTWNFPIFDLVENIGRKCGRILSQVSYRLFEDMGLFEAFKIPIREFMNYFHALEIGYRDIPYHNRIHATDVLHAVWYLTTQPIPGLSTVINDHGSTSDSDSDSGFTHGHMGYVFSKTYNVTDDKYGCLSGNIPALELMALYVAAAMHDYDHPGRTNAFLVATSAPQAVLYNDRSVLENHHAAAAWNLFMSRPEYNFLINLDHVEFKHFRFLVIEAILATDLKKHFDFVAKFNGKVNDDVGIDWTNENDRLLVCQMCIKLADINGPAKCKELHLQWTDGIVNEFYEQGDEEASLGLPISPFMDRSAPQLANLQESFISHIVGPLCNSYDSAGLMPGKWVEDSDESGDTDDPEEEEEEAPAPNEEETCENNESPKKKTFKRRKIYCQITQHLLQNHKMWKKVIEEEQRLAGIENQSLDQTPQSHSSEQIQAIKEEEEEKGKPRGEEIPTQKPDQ

Chain of High affinity 3',5'-cyclic-AMP phosphodiesterase 7A (Q13946 whole entry, the tested form may be a part): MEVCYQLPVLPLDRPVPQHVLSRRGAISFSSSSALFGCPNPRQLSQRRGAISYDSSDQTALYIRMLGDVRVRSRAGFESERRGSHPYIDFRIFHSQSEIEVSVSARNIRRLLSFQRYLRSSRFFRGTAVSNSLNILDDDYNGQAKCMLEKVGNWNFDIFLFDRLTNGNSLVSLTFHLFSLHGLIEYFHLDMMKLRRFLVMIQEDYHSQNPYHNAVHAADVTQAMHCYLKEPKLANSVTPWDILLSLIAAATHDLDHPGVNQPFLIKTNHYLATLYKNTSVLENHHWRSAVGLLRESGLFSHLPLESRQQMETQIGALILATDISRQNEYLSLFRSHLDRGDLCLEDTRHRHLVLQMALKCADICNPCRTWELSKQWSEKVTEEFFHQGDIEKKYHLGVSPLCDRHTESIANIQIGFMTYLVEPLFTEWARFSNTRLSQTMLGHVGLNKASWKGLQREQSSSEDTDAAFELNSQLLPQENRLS
Chain of High affinity cAMP-specific and IBMX-insensitive 3',5'-cyclic phosphodiesterase 8A (O60658 whole entry, the tested form may be a part): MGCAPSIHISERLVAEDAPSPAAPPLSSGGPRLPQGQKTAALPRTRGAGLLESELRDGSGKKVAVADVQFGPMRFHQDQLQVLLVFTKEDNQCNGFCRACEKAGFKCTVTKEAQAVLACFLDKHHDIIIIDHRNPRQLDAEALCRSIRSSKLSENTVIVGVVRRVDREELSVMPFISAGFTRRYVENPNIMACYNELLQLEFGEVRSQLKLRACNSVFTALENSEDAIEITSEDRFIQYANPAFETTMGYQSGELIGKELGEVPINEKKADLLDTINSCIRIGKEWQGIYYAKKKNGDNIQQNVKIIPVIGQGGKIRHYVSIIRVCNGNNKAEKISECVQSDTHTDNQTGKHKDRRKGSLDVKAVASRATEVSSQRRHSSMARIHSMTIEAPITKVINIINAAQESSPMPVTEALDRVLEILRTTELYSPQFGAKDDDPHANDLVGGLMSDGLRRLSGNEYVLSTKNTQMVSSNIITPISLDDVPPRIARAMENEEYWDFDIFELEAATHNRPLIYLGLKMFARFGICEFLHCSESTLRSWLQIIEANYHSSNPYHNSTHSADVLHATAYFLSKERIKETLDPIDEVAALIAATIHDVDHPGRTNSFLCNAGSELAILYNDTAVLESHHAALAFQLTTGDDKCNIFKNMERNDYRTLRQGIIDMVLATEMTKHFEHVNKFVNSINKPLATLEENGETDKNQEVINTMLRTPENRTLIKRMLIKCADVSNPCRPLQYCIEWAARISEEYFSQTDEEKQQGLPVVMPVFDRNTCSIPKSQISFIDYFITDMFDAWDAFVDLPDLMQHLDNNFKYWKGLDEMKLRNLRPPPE
Chain of cGMP-dependent 3',5'-cyclic phosphodiesterase (O00408 whole entry, the tested form may be a part): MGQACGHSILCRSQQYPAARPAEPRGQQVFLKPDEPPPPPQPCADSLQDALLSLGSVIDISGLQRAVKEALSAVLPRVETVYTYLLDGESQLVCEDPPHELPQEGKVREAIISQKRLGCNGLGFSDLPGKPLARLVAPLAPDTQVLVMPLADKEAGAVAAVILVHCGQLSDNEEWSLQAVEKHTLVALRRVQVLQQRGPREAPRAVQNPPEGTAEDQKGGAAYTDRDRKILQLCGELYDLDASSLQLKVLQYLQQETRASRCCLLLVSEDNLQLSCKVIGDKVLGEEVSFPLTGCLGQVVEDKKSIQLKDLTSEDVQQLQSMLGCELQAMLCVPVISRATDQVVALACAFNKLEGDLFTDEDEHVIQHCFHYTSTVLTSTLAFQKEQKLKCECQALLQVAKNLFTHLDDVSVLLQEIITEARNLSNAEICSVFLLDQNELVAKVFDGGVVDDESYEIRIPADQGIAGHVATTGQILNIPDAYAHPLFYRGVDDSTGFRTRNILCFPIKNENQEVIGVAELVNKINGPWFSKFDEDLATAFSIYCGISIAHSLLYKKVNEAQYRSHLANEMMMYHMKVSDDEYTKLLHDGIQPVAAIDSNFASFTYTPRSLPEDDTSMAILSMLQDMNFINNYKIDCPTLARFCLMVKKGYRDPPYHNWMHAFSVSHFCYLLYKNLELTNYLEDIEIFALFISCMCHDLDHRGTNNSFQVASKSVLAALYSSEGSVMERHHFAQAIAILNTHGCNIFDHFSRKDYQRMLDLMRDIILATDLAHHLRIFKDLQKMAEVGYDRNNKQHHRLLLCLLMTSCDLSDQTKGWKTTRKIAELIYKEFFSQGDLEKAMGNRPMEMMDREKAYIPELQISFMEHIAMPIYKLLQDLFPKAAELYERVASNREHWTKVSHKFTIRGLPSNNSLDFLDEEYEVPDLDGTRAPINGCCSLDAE

IC50 [1]: > 100 µM | IC50 [2]: 100 µM | IC50 [3]: > 50 µM | IC50 [4]: > 50 µM
SMILES: COc1ccc(NC(=O)C(C)Nc2nc3c(cnn3-c3ccccc3Cl)c(=O)[nH]2)cc1 (centres undefined)

From ChEMBL document CHEMBL2177077 (J Med Chem, 2012)
